61 molecules from patent US5814646A, “Inhibitors of amyloid beta-protein production” (Eli Lilly and Company, priority 1995, dated 1998) can be followed below.

pIC50: −log10 of the molar value.

What is called inhibition is how much of the control response was suppressed. The low end stands for a response near the control, the high end for a response far below the control. What is called pIC50 is the negative decadic logarithm of the IC50, by convention in mol/L.

One assay concerns Aβ production in 293 751 SWE and CHO 751 SWE cells (transfected with APP-751 Swedish mutation). Kind of assay: Aβ production inhibition activity in cells (Aβ ELISA of conditioned media, normalized for cytotoxicity by MTT). Type of assay: cell-based. Conditions: 5 μg/ml. How it is done: Two cell lines (human kidney cell line 293 and Chinese hamster ovary cell line CHO) were stably transfected with the gene for APP-751 containing the double mutation Lys651 -Met652 to Asn651 -Leu652 (APP-751 numbering) commonly called the Swedish mutation using the method described in Citron et al., (1992) Nature 360:672-674. The transfected cell lines were designated as 293 751 SWE and CHO 751 SWE, and were plated in Corning 96 well plates at 2.5×10^4 or 1×10^4 cells per well respectively in Dulbecco's minimal essential media plus 10% fetal bovine serum. Following overnight incubation at 37° C. in an incubator equilibrated with 10% carbon dioxide (CO2), the media were removed and replaced with 200 μL per well of media containing a test compound. After a two hour pretreatment period, the media were again removed and replaced with fresh media containing the test compound and the cells were incubated for an additional two hours.
Test compound stocks were prepared in DMSO such that at the final concentration used in the treatment, the concentration of DMSO did no exceed 0.5%. After treatment, plates were centrifuged in a Beckman GPR at 1200 rpm for five minutes at room temperature to pellet cellular debris from the conditioned media. From each well, 100 μL of conditioned media were transferred into an ELISA plate precoated with antibody 266 against βAP-13-28 (Seubert et al., supra.) and stored at 4° C. overnight. An ELISA assay employing labeled antibody 6C6 (against βAP-1-16) was run the next day to measure the amount of Aβ produced.
Cytotoxic effects of the test compounds were measured by a modification of the method of Hansen et al., (1989) J. Immun. Meth. 119:203-210. To the cells remaining in the tissue culture plate, was added 25 μL of a 3, (4,5-dimethylthiazol-2-yl)2,5-diphenyltetrazolium bromide (MTT) stock solution (5 mg/mL) to a final concentration of […]. Cells were incubated at 37° C. for one hour, and cellular activity was stopped by the addition of an equal volume of MTT lysis buffer (20% w/v sodium dodecylsulfate in 50% DMF, pH 4.7). Complete extraction was achieved by overnight shaking at room temperature. The difference in the OD562 nm and the OD650 nm was measured in a Molecular Devices UVmax microplate reader as an indicator of the cellular viability.
The results of the Aβ ELISA were fit to a standard curve and expressed as ng/mL Aβ peptide. In order to normalize for cytotoxicity, these Aβ results were divided by the MTT results and expressed as a percentage of the results from a drug -free control.
The test compounds were assayed for Aβ production inhibition activity in cells at […] using the test. The results presented in Table 1 are the mean and standard deviation of at least six replicate assays. IC50 means the concentration of test compound in micromoles/liter required to inhibit Aβ production by 50%.
Consider `CC(c1cccc(NC(=O)c2ccc(C(C)(C)C)cc2)c1)N(O)C(=S)NCc1ccccc1` (stereo not shown) [Compound 99], for which testing at 5 µg/mL gave an inhibition of 43%.

Consider `Cc1cccc(CNC(=S)N(O)C(C)c2cccc(NC(=O)c3ccc(C(C)(C)C)cc3)c2)c1` (stereo not shown) [Compound 100], for which the inhibition at 5 µg/mL stood at 1%.

As to `Cc1cccc(CNC(=S)N(O)Cc2cccc(OCc3ccc(C(C)(C)C)cc3)c2)c1` [Compound 48], the inhibition at 5 µg/mL worked out at 29%. Turning to `CCCCCCNC(=S)N(O)Cc1ccc(-c2ccccc2)cc1` [Compound 78], 5 µg/mL produced 24% inhibition. `ON(Cc1ccc(OCc2ccc(Cl)c(Cl)c2)cc1)C(=S)NCc1ccccc1` [Compound 54] came in with an inhibition at 5 µg/mL of 25%.

The same assay, now with this note: 10 μg/ml, % of drug-free control, normalized to MTT.
Take `CNC(=O)Nc1nnc(Br)s1` [Compound 253]: the inhibition at 10 µg/mL stood at 2%. Same read-out and setting: next, `COC(=O)c1ccc(NC(=O)Nc2ccc(Cl)c(C(F)(F)F)c2)cc1OC` [Compound 165]: 42%. With `CCCCCCC(c1cccc(Oc2ccc(C(C)(C)C)cc2)c1)N(O)C(=S)Nc1ccc(Cl)c(C(F)(F)F)c1` (stereo not shown) [Compound 35], at 10 µg/mL the inhibition was 9%.

Molecule `CCC(c1cccc(Oc2ccc(C(C)(C)C)cc2)c1)N(O)C(=S)Nc1cccc(C(F)(F)F)c1Cl` (stereo not shown) [Compound 22] gave an inhibition at 10 µg/mL of 10%. Regarding `O=C(Nc1ccc(Cl)c(Cl)c1)Nc1ncccn1` [Compound 138], the inhibition at 10 µg/mL worked out at 7%.

For the molecule `CCCCCCNC(=S)N(O)Cc1cccc(S(=O)(=O)c2ccc(C(C)(C)C)cc2)c1` [Compound 93], the “Aβ Production Inhibition Activity, % inhibition at 10 μg/ml” value was 13%. The molecule `Cc1ccc(CNC(=S)Nc2ccccc2Oc2ccc(C(C)(C)C)cc2)cc1C` [Compound 184] gave an inhibition at 10 µg/mL of 36%. In the case of `CCCCCCNC(=S)N(O)Cc1ccc(-c2ccc(C(C)(C)C)cc2)cc1` [Compound 80], 10 µg/mL produced 11% inhibition. The same measure, in the same setting: next, `CCCCCCNC(=S)Nc1ccccc1Oc1ccc(C(C)(C)C)cc1` [Compound 185]: 21%; `ON(Cc1ccc(OCc2c(Cl)cccc2Cl)cc1)C(=S)NCc1ccccc1` [Compound 64]: 18%; `O=C(Nc1ccc(Cl)cc1)Nc1nncs1` [Compound 256]: 42%. Same read-out and setting: next, `CC(NC(=S)N(O)C(C)c1cccc(Oc2ccc(C(C)(C)C)cc2)c1)c1ccccc1` (stereo not shown) [Compound 13]: 46%; `Cc1nnc(NC(=O)Nc2cccc(Cl)c2)s1` [Compound 248]: 47%. Turning to `CN(Cc1cccc(Oc2ccc(C(C)(C)C)cc2)c1)C(=S)NCc1ccc(Cl)c(Cl)c1` [Compound 44], at 10 µg/mL the inhibition was 40%. On the same count and under the same terms, next, `COC(=O)c1ccccc1NC(=O)Nc1ccc(Cl)c(Cl)c1` [Compound 142]: 22%; `CSc1cccc(NC(=O)Nc2nnc(C)s2)c1` [Compound 252]: 25%. As for `CSc1ccc(NC(=O)Nc2ccc(Cl)cc2)cc1` [Compound 156], the inhibition at 10 µg/mL turned out to be 13%. As to `O=C(Nc1ccc(Cl)c(Cl)c1)c1ccccn1` [Compound 227], the “Aβ Production Inhibition Activity, % inhibition at 10 μg/ml” value turned out to be 32%. `CC(C)(C)c1ccc(Oc2ccccc2NC(=S)NCc2ccccc2)cc1` [Compound 181] had an inhibition at 10 µg/mL of 52%.

The same assay, now with this note: 2 h pretreatment + 2 h incubation.
As to `CC(C)(C)c1ccc(Oc2ccc(NC(=S)NCCCc3ccccc3)cc2)cc1` [Compound 117], the negative-log IC50 (pIC50) was 4.77.

Consider `COc1c(C(C)(C)C)cc(COc2ccc(CN(O)C(=S)NCc3ccccc3)cc2)cc1C(C)(C)C` [Compound 73], for which the negative-log IC50 (pIC50) was 5.23. On the same count and under the same terms, next, `CC(C)(C)c1ccc(SCc2ccc(CN(O)C(=S)NCc3ccccc3)cc2)cc1` [Compound 94]: 4.88; `CC(NC(=S)NCc1ccccc1)c1cccc(Oc2ccc(C(C)(C)C)cc2)c1` (stereo not shown) [Compound 39]: 4.98.

For the molecule `CCCCCCNC(=S)N(O)Cc1ccc(OCc2ccc(C(C)=O)c(O)c2CCC)cc1` [Compound 68], the pIC50 was 4.71. Regarding `CC(C)(C)c1ccc(C(=O)Nc2cccc(CN(O)C(=S)NCc3ccccc3)c2)cc1` [Compound 84], the negative logarithm of the IC50 (pIC50) was 4.82.

On to `CC(C)(C)c1ccc(Oc2ccc(NC(=S)NCc3ccc(F)cc3C(F)(F)F)cc2)cc1` [Compound 132], for which the pIC50 is 5.10.

With `CC(C)(C)c1ccc(Oc2ccc(NC(=S)NCc3ccc(Cl)c(Cl)c3)cc2)cc1` [Compound 133], the pIC50 is 5.19.

As to `O=C(Nc1ccc(Cl)c(Cl)c1)Nc1nncs1` [Compound 235, 1-1,3,4-thiadiazol-2-yl-3-(3,4-dichlorophenyl)urea], the pIC50 is 5.00. The same measure, in the same setting: next, `CC(C)(C)c1cccc(Oc2cccc(CN(O)C(=S)NCc3ccccc3)c2)c1` [Compound 187]: 4.92.

Regarding `CC(C)(C)c1ccc(Oc2ccc(NC(=S)NCc3ccc(F)cc3Cl)cc2)cc1` [Compound 130], the negative-log IC50 (pIC50) is 5.14. Consider `CC(C)(C)c1ccc(Oc2ccc(NC(=S)NCC3CCCNC3)cc2)cc1` (stereo not shown) [Compound 127], for which the negative logarithm of the IC50 (pIC50) is 4.93.

In the case of `CCC(C)(C)c1ccc(OCc2ccc(CN(O)C(=S)NCc3ccccc3)cc2)cc1` [Compound 97], the pIC50 was 5.00.

Take `CC(C)(C)c1ccc(Oc2cccc(CN(O)C(=S)NCc3ccc(Cl)c(Cl)c3)c2)cc1` [Compound 28]: the pIC50 was 5.38.

As to `CC(C)(C)c1nnc(NC(=O)Nc2ccc(Cl)c(Cl)c2)s1` [Compound 237, 1-(5-t-butyl-1,3,4-thiadiazol-2-yl)-3-(3,4-dichlorophenyl)urea], the pIC50 is 5.54. Still for that read-out and setting: next, `S=C(NCc1ccccc1)Nc1ccc(Cl)c(Cl)c1` [Compound 146]: 4.66; `Cc1cc2nc(NC(=O)Nc3ccc(Cl)c(Cl)c3)[nH]c2cc1C` [Compound 143]: 4.83. Same read-out and setting: then `S=C(Nc1ccc(Oc2ccccc2)cc1)Nc1ccc(Cl)c(Cl)c1` [Compound 148], with 5.12; and `CC(C)(C)c1ccc(Oc2cccc(NC(=S)Nc3ccc(Cl)cc3)c2)cc1` [Compound 192], with 5.06; and `CC(C)(C)c1ccc(Oc2ccc(NC(=S)NCc3ccncc3)cc2)cc1` [Compound 122], with 4.63.

Consider `CC(c1cccc(Oc2ccc(C(C)(C)C)cc2)c1)N(O)C(=S)NCc1ccc(Cl)cc1Cl` (stereo not shown) [Compound 17], for which the negative logarithm of the IC50 (pIC50) was 5.24.

For the molecule `CC(C)(C)c1ccccc1Oc1ccc(NC(=S)Nc2cccc(C(F)(F)F)c2)cc1` [Compound 177], the negative-log IC50 (pIC50) was 5.12. With `CSc1ccc(NC(=O)Nc2ccc(SC)c(Br)c2)cc1` [Compound 164], the pIC50 is 4.84. Turning to `CSc1ccc(NC(=O)Nc2cccc(Cl)c2)cc1Br` [Compound 162], the pIC50 was 5.24. The same measure, in the same setting: next, `CC(C)(C)c1ccc(Oc2ccccc2NC(=S)Nc2ccc(Cl)c(C(F)(F)F)c2)cc1` [Compound 170]: 5.36; `CC(C)(C)c1cc(C(=O)Nc2ccc(Cl)c(Cl)c2)on1` [Compound 245]: 5.01. Same read-out and setting: next, `CCCc1c(CSC(=S)NCc2ccccc2)ccc(C(C)=O)c1O` [Compound 199]: 5.70; `CC(C)(C)c1ccc(COc2cccc(CN(O)C(=S)NCc3ccccc3)c2)cc1` [Compound 49]: 5.17; `CC(C)(C)c1ccc(Oc2ccc(NC(=S)NCCc3ccccn3)cc2)cc1` [Compound 123]: 4.91. Regarding `CC(C)(C)c1ccc(Oc2ccc(NC(=S)NCc3cccc(F)c3)cc2)cc1` [Compound 112], the negative-log IC50 (pIC50) is 5.12.

Turning to `CC(C)(C)c1ccc(Oc2ccc(NC(=S)NCc3ccc(F)c(F)c3)cc2)cc1` [Compound 129], the negative logarithm of the IC50 (pIC50) was 5.35. Still for that read-out and setting: then `Cc1cccc(CNC(=S)N(O)C(C)c2cccc(Oc3ccc(C(C)(C)C)cc3)c2)c1` (stereo not shown) [Compound 6], with 4.95.

`CCCCCCNC(=S)N(O)Cc1ccccc1Oc1ccc(C(C)(C)C)cc1` [Compound 182]: the pIC50 was 4.47. The same measure, in the same setting: then `CCC(c1cccc(Oc2ccc(C(C)(C)C)cc2)c1)N(O)C(=S)Nc1ccc(Cl)c(C(F)(F)F)c1` (stereo not shown) [Compound 23], with 4.96; and `CCCCCCNC(=S)N(O)Cc1ccc(Sc2ccc(C(C)(C)C)cc2)cc1` [Compound 89], with 5.28.

For the molecule `CC(C)(C)c1ccc(Oc2cccc(NC(=S)Nc3ccc(Cl)c(C(F)(F)F)c3)c2)cc1` [Compound 168], the pIC50 was 5.41.

As to `CC(C)(C)c1ccc(Oc2ccc(NC(=S)NCc3ccccc3Cl)cc2)cc1` [Compound 104], the pIC50 was 4.87.
